Where a name gives a salt, the structure may show the parent alone.
Target: T1, Activated human C1s (Homo sapiens, UniProt P09871)
T1 construct: purchased Calbiochem (La Jolla, Calif.)
T1 sequence (P09871 438-688 limits assumed): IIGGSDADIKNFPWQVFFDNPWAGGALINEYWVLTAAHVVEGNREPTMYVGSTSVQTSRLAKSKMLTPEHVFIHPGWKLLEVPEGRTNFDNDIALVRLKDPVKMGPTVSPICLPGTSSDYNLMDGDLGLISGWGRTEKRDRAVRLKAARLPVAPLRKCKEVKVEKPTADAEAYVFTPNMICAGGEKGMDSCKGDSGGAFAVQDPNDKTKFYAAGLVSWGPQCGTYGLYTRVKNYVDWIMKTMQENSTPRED
T1 sequence (P09871 16-437 partner limits assumed): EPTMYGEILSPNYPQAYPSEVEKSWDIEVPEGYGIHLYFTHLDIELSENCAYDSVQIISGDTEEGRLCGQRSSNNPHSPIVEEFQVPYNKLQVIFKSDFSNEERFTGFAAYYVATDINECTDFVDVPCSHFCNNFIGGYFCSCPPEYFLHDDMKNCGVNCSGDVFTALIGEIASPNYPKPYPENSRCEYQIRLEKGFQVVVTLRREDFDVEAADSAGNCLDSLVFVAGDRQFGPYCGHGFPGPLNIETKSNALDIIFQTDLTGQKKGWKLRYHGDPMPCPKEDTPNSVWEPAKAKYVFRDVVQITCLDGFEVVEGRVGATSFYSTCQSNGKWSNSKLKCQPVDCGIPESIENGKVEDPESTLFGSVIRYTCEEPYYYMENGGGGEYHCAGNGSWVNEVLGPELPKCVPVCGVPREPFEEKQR
Assay: In vitro inhibition of C1s (Ki determination, C1s-catalyzed hydrolysis of Z-Gly-Arg-S-Bzl, DTNB readout)
Type: biochemical
Conditions: substrate Z-Gly-Arg-S-Bzl 45 μM, DTNB 200 μM, C1s 2.3 nM, pH 7.5, 37° C., absorbance at 405 nm

Ki [µM] | Compound
0.006 to 0.023 | CSc1sc(C(=N)N)cc1S(=O)(=O)c1cccc(-c2c(C)cc(Cl)cc2NC(=O)CCCS(C)(=O)=O)c1 [Example 135, N-[3′-(5-Carbamimidoyl-2-methylsulfanyl-thiophene-3-sulfonyl)-4-chloro-6-methyl-biphenyl-2-yl]-4-methanesulfonyl-butyramide trifluoroacetate]
0.006 to 0.023 | CSc1sc(C(=N)N)cc1S(=O)(=O)c1cccc(-c2ccc(NC(=N)NCCCS(C)(=O)=O)cc2C)c1 [Example 171, 4-{4′-[N′-(3-Methanesulfonyl-propyl)-guanidino]-2′-methyl-biphenyl-3-sulfonyl}-5-methylsulfanyl-thiophene-2-carboxamidine trifluoroacetate]
0.006 to 0.023 | CSc1sc(C(=N)N)cc1S(=O)(=O)c1cccc(-c2ccc(NC(=N)NCCCCCS(C)(=O)=O)cc2C)c1 [Example 173, 4-{4′-[N′-(5-Methanesulfonyl-pentyl)-guanidino]-2′-methyl-biphenyl-3-sulfonyl}-5-methylsulfanyl-thiophene-2-carboxamidine trifluoroacetate]
0.006 to 0.023 | CSc1sc(C(=N)N)cc1S(=O)(=O)c1cccc(-c2c(C)cc(NC(=N)N)cc2NC(=O)NCCCCS(C)(=O)=O)c1 [Example 184, 4-{4′-Guanidino-2′-[3-(4-methanesulfonyl-butyl)-ureido]-6′-methyl-biphenyl-3-sulfonyl}-5-methylsulfanyl-thiophene-2-carboxamidine trifluoroacetate]
0.006 to 0.023 | CSc1sc(C(=N)N)cc1S(=O)(=O)c1cccc(-c2c(C)cccc2NC(=O)NCCNS(=O)(=O)c2ccccc2)c1 [Example 194, 4-{2′-[3-(2-Benzenesulfonylamino-ethyl)-ureido]-6′-methyl-biphenyl-3-sulfonyl}-5-methylsulfanyl-thiophene-2-carboxamidine trifluoroacetate]
0.006 to 0.023 | CSc1sc(C(=N)N)cc1S(=O)(=O)c1cccc(-c2c(C)cccc2NC(=O)NCCNS(C)(=O)=O)c1 [Example 195, 4-{2′-[3-(2-Methanesulfonylamino-ethyl)-ureido]-6′-methyl-biphenyl-3-sulfonyl}-5-methylsulfanyl-thiophene-2-carboxamidine trifluoroacetate]
0.006 to 0.023 | CSc1sc(C(=N)N)cc1S(=O)(=O)c1cccc(-c2c(C)cccc2NC(=O)NCCCc2ccccc2)c1 [Example 203, 4-{6′-Methyl-2′-[3-(3-phenyl-propyl)-ureido]-biphenyl-3-sulfonyl}-5-methylsulfanyl-thiophene-2-carboxamidine trifluoroacetate]
0.006 to 0.023 | CSc1sc(C(=N)N)cc1S(=O)(=O)c1cccc(-c2c(C)cccc2NC(=O)NCCc2c[nH]c3ccccc23)c1 [Example 207, 4-(2′-{3-[2-(1H-Indol-3-yl)-ethyl]-ureido}-6′-methyl-biphenyl-3-sulfonyl)-5-methylsulfanyl-thiophene-2-carboxamidine trifluoroacetate]
0.006 to 0.023 | CSc1sc(C(=N)N)cc1S(=O)(=O)c1cccc(-c2c(C)cccc2NC(=O)CCCS(C)(=O)=O)c1 [Example 209, N-[3′-(5-Carbamimidoyl-2-methylsulfanyl-thiophene-3-sulfonyl)-6-methyl-biphenyl-2-yl]-4-methanesulfonyl-butyramide trifluoroacetate]
0.006 to 0.023 | CSc1sc(C(=N)N)cc1S(=O)(=O)c1cccc(-c2c(C)cccc2NC(=O)CCCS(N)(=O)=O)c1 [Example 210, N-[3′-(5-Carbamimidoyl-2-methylsulfanyl-thiophene-3-sulfonyl)-6-methyl-biphenyl-2-yl]-4-sulfamoyl-butyramide trifluoroacetate]
0.006 to 0.023 | CSc1sc(C(=N)N)cc1S(=O)(=O)c1cccc(-c2c(C)cccc2NC(=O)CCCCCCCCCCN)c1 [Example 211, 11-Amino-undecanoic acid [3′-(5-carbamimidoyl-2-methylsulfanyl-thiophene-3-sulfonyl)-6-methyl-biphenyl-2-yl]-amide bistrifluoroacetate]
0.006 to 0.023 | CSc1sc(C(=N)N)cc1S(=O)(=O)c1cccc(-c2ccc(NC(N)=O)cc2C)c1 [Example 228, 5-Methylsulfanyl-4-(2 ′-methyl-4′-ureido-biphenyl-3-sulfonyl)-thiophene-2-carboxamidine trifluoroacetate]

The remaining lines, values behind:

Compound | Ki [µM]
COc1cccc(S(=O)(=O)c2cc(C(=N)N)sc2SC)c1 [Example 114, 4-(3-Methoxy-benzenesulfonyl)-5-methylsulfanyl-thiophene-2-carboxamidine hydrochloride HCl] | 0.006 to 0.023
CSc1sc(C(=N)N)cc1S(=O)(=O)c1ccc(C)c(-c2ccccc2)c1 [Example 115, 4-(6-Methyl-biphenyl-3-sulfonyl)-5-methylsulfanyl-thiophene-2-carboxamidine trifluoroacetate] | 0.006 to 0.023
CSc1sc(C(=N)N)cc1S(=O)(=O)c1cccc(Oc2ccccc2)c1 [Example 116, 5-Metylsulfanyl-4-(3-phenoxy-benzenesulfonyl)-thiophene-2-carboxamidine hydrochloride salt] | 0.006 to 0.023
CSc1sc(C(=N)N)cc1S(=O)(=O)c1cccc(-c2ccccc2)c1 [Example 117, 4-(Biphenyl-3-sulfonyl)-5-methylsulfanyl-thiophene-2-carboxamidine trifluoroacetate] | 0.006 to 0.023
CSc1sc(C(=N)N)cc1S(=O)(=O)c1cnc(Cl)c(Br)c1 [Example 118, 4-(5-Bromo-6-chloro-pyridine-3-sulfonyl)-5-methylsulfanyl-thiophene-2-carboxamidine] | 0.006 to 0.023
CSc1sc(C(=N)N)cc1S(=O)(=O)c1cnc(N)c(Br)c1 [Example 119, 4-(6-Amino-5-bromo-pyridine-3-sulfonyl)-5-methylsulfanyl-thiophene-2-carboxamidine] | 0.006 to 0.023
CSc1sc(C(=N)N)cc1S(=O)(=O)c1cnc(N)c(-c2ccccc2C)c1 [Example 121, 4-(6-Amino-5-o-tolyl-pyridine-3-sulfonyl)-5-methylsulfanyl-thiophene-2-carboxamidine] | 0.006 to 0.023
CCCCCCNC(=N)Nc1ccc(-c2cccc(S(=O)(=O)c3cc(C(=N)N)sc3SC)c2)c(C)c1 [Example 136, 4-[4′-(N′-Hexyl-guanidino)-2′-methyl-biphenyl-3-sulfonyl]-5-methylsulfanyl-thiophene-2-carboxamidine trifluoroacetate] | 0.006 to 0.023
COc1cc(C)c(-c2cccc(S(=O)(=O)c3cc(C(=N)N)sc3SC)c2)c(COCC(=O)O)c1 [Example 192, [3′-(5-Carbamimidoyl-2-methylsulfanyl-thiophene-3-sulfonyl)-4-methoxy-6-methyl-biphenyl-2-ylmethoxy]-acetic acid trifluoroacetate] | 0.006 to 0.023
CSc1sc(C(=N)N)cc1S(=O)(=O)c1cccc(-c2ccc(F)cc2C)c1 [Example 219, 4-(4′-Fluoro-2′-methyl-biphenyl-3-sulfonyl)-5-methylsulfanyl-thiophene-2-carboxamidine trifluoroacetate] | 0.006 to 0.023
CSc1sc(C(=N)N)cc1S(=O)(=O)c1cccc(-c2ccc(N)cc2C)c1 [Example 220, 4-(4′-Amino-2′-methyl-biphenyl-3-sulfonyl)-5-methylsulfanyl-thiophene-2-carboxamidine bis-trifluoroacetate] | 0.006 to 0.023
CSc1sc(C(=N)N)cc1S(=O)(=O)c1cccc(-c2c(C)cc(O)cc2C)c1 [Example 224, 4-(4′-Hydroxy-2′,6′-dimethyl-biphenyl-3-sulfonyl)-5-methylsulfanyl-thiophene-2-carboxamidine trifluoroacetate] | 0.006 to 0.023

Reference: patent publication US7109354B2, “Thiophene amidines, compositions thereof, and methods of treating complement-mediated diseases and conditions” (3-Dimensional Pharmaceuticals, Inc., priority 2002, dated 2006)
